Assay results as given in patent publication US20100120752A1, “MUSCARINIC AGONISTS TO TREAT IMPULSE CONTROL DISORDERS” (Solvay Pharmaceuticals, B.V., priority 2007, published 2010).

Experiments:
Male Wistar rats = assay: 5-Choice Serial Reaction Time task, xanomeline or desmethylclozapine alone; type: in vivo, rat; details: for number of anticipatory responses / number of correct responses / number of fault responses / number of missed responses / percentage of correct responses / persevering responses / total number of responses: ±S.E.M.; for effect on number of anticipatory responses: at 10 mg/kg, table 2
From the text: (§1) Male Wistar rats weighing 330-450 g (Harlan, The Netherlands) were housed in pairs under a 12-h light/dark cycle (lights off at 7:00 a.m.) and had daily access to a limited amount of food that kept their body weight at approximately 85% of the free feeding weight. Water was available ad libitum. All procedures were in compliance with the European Communities Council Directive of Nov. 24, 1986 (86/609 EEC).
(§2) Standard 5-CSRT boxes from MED associates Inc. Georgia, Vt. US were used. The curved wall of the chamber contained five 1.6 cm2 holes, 2.2 cm deep, 2 cm above floor level. […] In every hole a yellow stimulus light was presented. A food dispenser was located at the opposite wall. The box was illuminated by a 28 Volt 100 mA house light. The 5-CSRT boxes were placed in sound attenuating cubicles. On-line control of the apparatus and data collection were performed by a MED-PC experimental apparatus programming system (Tatham, 1989), running on a Dell Optiplex GX1 PC.
(§3) Rats were first trained to collect reinforcement pellets from the food dispenser and to collect reinforcements that were placed in the 5 holes in order to habituate the animals to the 5-CSRT task apparatus. Next, training of the 5-CSRT task started. These sessions started by illumination of the light in one of the holes for 30 seconds (stimulus duration). A response by the rat into the illuminated hole or a response in that particular hole for a short period of time after the illumination (the limited hold 60 sec) was rewarded with the delivery of a food pellet, termination of the trial and a correct response was recorded. The light stimulus was presented in each of the holes 20 times during a session (total of 100 presentations), and the order of presentations was randomized. […] After termination of the trial a variable inter-trial interval was started (1, 3, 5, 7 or 9 sec) after which the next trial was started. Upon reaching a 75% correct performance level the duration of illumination of the light stimulus was reduced until a presentation of 0.5 sec (from 30 to 20, 10, 5, 2, 1, 0.9; 0.8; 0.7; 0.6; 0.5.) and a limited hold of 5 sec (in three steps from 30 to 20, 10 and 5 sec), was reached. (Robbins, 1993).
(§4) The following parameters were measured (Muir, 1996):
(§5) Accuracy: the percentage correct responses divided by the total responses made.
(§6) Errors of omission: the number of missed stimulus presentations.
(§7) Correct responses: the number of correct responses.
(§8) Fault responses: the number of responses in the wrong hole.
(§9) Anticipatory responses: the number of premature responses made preceding the presentation of the light stimulus.
(§10) Persevering responses: responses emitted after an incorrect or correct response.
Xanomeline, a mixed muscarine-M1 and muscarine-M4 agonist, and desmethylclozapine, a muscarinic-M1 agonist and muscarinic-M4 antagonist, were each tested in a Latin hexagon design, meaning that each rat received all test-dosages (0, 1, 3 and 10 mg/kg i.p.) in a random order.

[1] = system: MK801 induced increase of anticipatory responses of rats; assay: 5-Choice Serial Reaction Time task, interaction studies against MK801; type: in vivo, rat; details: for % correct resp / nr anticipatory resp / nr of correct resp / nr of fault resp / nr of missed resp / persevering resp / total nr of resp: ±SEM; for effect on increase in anticipatory responses induced by MK801 / effect on increase in persevering responses induced by MK801: table 3
From the text: as §1, §2, §3, §4, §5, §6, §7, §8, §9, §10
Both xanomeline and desmethylclozapine were each tested in the same dose range against 0.05 mg/kg (s.c.) MK801, a dose shown to elicit unequivocal impulsive behavior (see Table 1).

[2] = 1 mg/kg against 0.05 mg/kg (s.c.) MK801
[3] = 3 mg/kg against 0.05 mg/kg (s.c.) MK801
[4] = 10 mg/kg against 0.05 mg/kg (s.c.) MK801

In the case of CCCCCCOc1nsnc1C1=CCCN(C)C1 [xanomeline], the “number of anticipatory responses” value (Male Wistar rats; 1 mg/kg i.p.) is reported as 58.0 ± 7.9, the “number of correct responses” value (Male Wistar rats; 1 mg/kg i.p.) is reported as 53.0 ± 2.4 and the “number of fault responses” value (Male Wistar rats; 1 mg/kg i.p.) is reported as 22.7 ± 1.6. For the same molecule, the “number of missed responses” value (Male Wistar rats; 1 mg/kg i.p.) was 24.3 ± 2.4, the “percentage of correct responses” value (Male Wistar rats; 1 mg/kg i.p.) was 70.0 ± 2.1% and the persevering responses (Male Wistar rats; 1 mg/kg i.p.) was 6.3 ± 1.1. For the same molecule, the “total number of responses” value (Male Wistar rats; 1 mg/kg i.p.) was 75.1 ± 2.4, the “number of anticipatory responses” value (Male Wistar rats; 3 mg/kg i.p.) was 60.8 ± 4.9 and the “number of correct responses” value (Male Wistar rats; 3 mg/kg i.p.) was 51.2 ± 2.5. For the same molecule, the “number of fault responses” value (Male Wistar rats; 3 mg/kg i.p.) was 21.7 ± 1.8, the “number of missed responses” value (Male Wistar rats; 3 mg/kg i.p.) was 27.2 ± 2.2 and the “percentage of correct responses” value (Male Wistar rats; 3 mg/kg i.p.) was 70.2 ± 2.5%. For the same molecule, the persevering responses (Male Wistar rats; 3 mg/kg i.p.) was 6.7 ± 1.4, the “total number of responses” value (Male Wistar rats; 3 mg/kg i.p.) was 72.8 ± 2.2 and the “number of anticipatory responses” value (Male Wistar rats; 10 mg/kg i.p.) was 21.5 ± 6.4. For the same molecule, the “number of correct responses” value (Male Wistar rats; 10 mg/kg i.p.) was 37.2 ± 2.6, the “number of fault responses” value (Male Wistar rats; 10 mg/kg i.p.) was 15.0 ± 1.8 and the “number of missed responses” value (Male Wistar rats; 10 mg/kg i.p.) was 46.8 ± 3.7. The “percentage of correct responses” value (Male Wistar rats; 10 mg/kg i.p.) was 72.1 ± 2.3%, the persevering responses (Male Wistar rats; 10 mg/kg i.p.) was 4.9 ± 0.9 and the “total number of responses” value (Male Wistar rats; 10 mg/kg i.p.) was 53.2 ± 3.7. The “effect on number of anticipatory responses” value (Male Wistar rats) was “reduced”, the “% correct resp” value [1, 2] was 70.2 ± 3.8% and the nr anticipatory resp [1, 2] was 75.3 ± 10.5. The “nr of correct resp” value [1, 2] was 58.7 ± 4.4, the “nr of fault resp” value [1, 2] was 23.8 ± 2.4 and the “nr of missed resp” value [1, 2] was 17.6 ± 3.1. The persevering resp [1, 2] was 15.3 ± 2.5, the “total nr of resp” value [1, 2] was 82.4 ± 3.1 and the “% correct resp” value [1, 3] was 71.6 ± 2.4%. For the same molecule, the nr anticipatory resp [1, 3] was 99.3 ± 11.1, the “nr of correct resp” value [1, 3] was 57.4 ± 2.7 and the “nr of fault resp” value [1, 3] was 22.7 ± 1.9. The “nr of missed resp” value [1, 3] was 19.9 ± 2.4, the persevering resp [1, 3] was 14.1 ± 3.5 and the “total nr of resp” value [1, 3] was 80.1 ± 2.4. The “% correct resp” value [1, 4] was 74.4 ± 2.8%, the nr anticipatory resp [1, 4] was 47.5 ± 8.4 and the “nr of correct resp” value [1, 4] was 50.9 ± 2.4. For the same molecule, the “nr of fault resp” value [1, 4] was 18.0 ± 2.2, the “nr of missed resp” value [1, 4] was 31.1 ± 3.0 and the persevering resp [1, 4] was 8.5 ± 1.1. The “total nr of resp” value [1, 4] was 68.9 ± 3.0, the “effect on increase in anticipatory responses induced by MK801” value [1] was “antagonize” and the “effect on increase in persevering responses induced by MK801” value [1] was “antagonize”.
In the case of Clc1ccc2c(c1)N=C(N1CCNCC1)c1ccccc1N2 [desmethylclozapine], the “number of anticipatory responses” value (Male Wistar rats; 1 mg/kg i.p.) is reported as 50.2 ± 4.9, the “number of correct responses” value (Male Wistar rats; 1 mg/kg i.p.) is reported as 52.2 ± 3.2 and the “number of fault responses” value (Male Wistar rats; 1 mg/kg i.p.) is reported as 19.4 ± 2.2. For the same molecule, the “number of missed responses” value (Male Wistar rats; 1 mg/kg i.p.) was 28.4 ± 3.2, the “percentage of correct responses” value (Male Wistar rats; 1 mg/kg i.p.) was 72.9 ± 3.1% and the persevering responses (Male Wistar rats; 1 mg/kg i.p.) was 7.8 ± 1.4. For the same molecule, the “total number of responses” value (Male Wistar rats; 1 mg/kg i.p.) was 71.6 ± 3.2, the “number of anticipatory responses” value (Male Wistar rats; 3 mg/kg i.p.) was 51.3 ± 7.5 and the “number of correct responses” value (Male Wistar rats; 3 mg/kg i.p.) was 51.9 ± 3.1. For the same molecule, the “number of fault responses” value (Male Wistar rats; 3 mg/kg i.p.) was 20.1 ± 2.2, the “number of missed responses” value (Male Wistar rats; 3 mg/kg i.p.) was 28.0 ± 2.2 and the “percentage of correct responses” value (Male Wistar rats; 3 mg/kg i.p.) was 71.9 ± 3.2%. The persevering responses (Male Wistar rats; 3 mg/kg i.p.) was 8.8 ± 1.2, the “total number of responses” value (Male Wistar rats; 3 mg/kg i.p.) was 72.0 ± 2.2 and the “number of anticipatory responses” value (Male Wistar rats; 10 mg/kg i.p.) was 34.5 ± 3.9. The “number of correct responses” value (Male Wistar rats; 10 mg/kg i.p.) was 48.5 ± 3.9, the “number of fault responses” value (Male Wistar rats; 10 mg/kg i.p.) was 17.5 ± 2.0 and the “number of missed responses” value (Male Wistar rats; 10 mg/kg i.p.) was 34.0 ± 2.9. For the same molecule, the “percentage of correct responses” value (Male Wistar rats; 10 mg/kg i.p.) was 72.6 ± 3.6%, the persevering responses (Male Wistar rats; 10 mg/kg i.p.) was 5.5 ± 0.9 and the “total number of responses” value (Male Wistar rats; 10 mg/kg i.p.) was 66.0 ± 2.9. For the same molecule, the “effect on number of anticipatory responses” value (Male Wistar rats) was “reduced”, the “% correct resp” value [1, 2] was 67.2 ± 2.6% and the nr anticipatory resp [1, 2] was 141.8 ± 20.8. For the same molecule, the “nr of correct resp” value [1, 2] was 52.5 ± 3.4, the “nr of fault resp” value [1, 2] was 25.1 ± 1.9 and the “nr of missed resp” value [1, 2] was 22.4 ± 3.1. The persevering resp [1, 2] was 24.8 ± 2.8, the “total nr of resp” value [1, 2] was 77.6 ± 3.1 and the “% correct resp” value [1, 3] was 69.6 ± 2.6%. The nr anticipatory resp [1, 3] was 104.3 ± 18.4, the “nr of correct resp” value [1, 3] was 55.2 ± 2.8 and the “nr of fault resp” value [1, 3] was 24.4 ± 2.4. The “nr of missed resp” value [1, 3] was 20.4 ± 3.6, the persevering resp [1, 3] was 16.3 ± 2.1 and the “total nr of resp” value [1, 3] was 79.6 ± 3.6. For the same molecule, the “% correct resp” value [1, 4] was 70.1 ± 3.1%, the nr anticipatory resp [1, 4] was 78.6 ± 14.5 and the “nr of correct resp” value [1, 4] was 52.7 ± 3.9. The “nr of fault resp” value [1, 4] was 21.6 ± 2.0, the “nr of missed resp” value [1, 4] was 25.8 ± 3.7 and the persevering resp [1, 4] was 17.3 ± 3.4. For the same molecule, the “total nr of resp” value [1, 4] was 74.3 ± 3.7, the “effect on increase in anticipatory responses induced by MK801” value [1] was “antagonize” and the “effect on increase in persevering responses induced by MK801” value [1] was “antagonize”.
